In ChEMBL document CHEMBL4270553, “Synthesis and anticancer activity of new dihydropyrimidinone derivatives” (Eur J Med Chem, 2018):

Experiments:
NCI-H1299 = assay: Cytotoxicity against human NCI-H1299 cells after 24 hrs by MTT assay; type: functional, cell-based; conditions: NCI-H1299, 24 h
PC-3 = assay: cells; conditions: Homo sapiens, PC-3, 24 h
Description: Cytotoxicity against human PC3 cells after 24 hrs by MTT assay

[1] = target: Kinesin-like protein KIF11 (Homo sapiens, UniProt P52732); assay: Inhibition of human Eg5
Chain of Kinesin-like protein KIF11 (P52732 whole entry): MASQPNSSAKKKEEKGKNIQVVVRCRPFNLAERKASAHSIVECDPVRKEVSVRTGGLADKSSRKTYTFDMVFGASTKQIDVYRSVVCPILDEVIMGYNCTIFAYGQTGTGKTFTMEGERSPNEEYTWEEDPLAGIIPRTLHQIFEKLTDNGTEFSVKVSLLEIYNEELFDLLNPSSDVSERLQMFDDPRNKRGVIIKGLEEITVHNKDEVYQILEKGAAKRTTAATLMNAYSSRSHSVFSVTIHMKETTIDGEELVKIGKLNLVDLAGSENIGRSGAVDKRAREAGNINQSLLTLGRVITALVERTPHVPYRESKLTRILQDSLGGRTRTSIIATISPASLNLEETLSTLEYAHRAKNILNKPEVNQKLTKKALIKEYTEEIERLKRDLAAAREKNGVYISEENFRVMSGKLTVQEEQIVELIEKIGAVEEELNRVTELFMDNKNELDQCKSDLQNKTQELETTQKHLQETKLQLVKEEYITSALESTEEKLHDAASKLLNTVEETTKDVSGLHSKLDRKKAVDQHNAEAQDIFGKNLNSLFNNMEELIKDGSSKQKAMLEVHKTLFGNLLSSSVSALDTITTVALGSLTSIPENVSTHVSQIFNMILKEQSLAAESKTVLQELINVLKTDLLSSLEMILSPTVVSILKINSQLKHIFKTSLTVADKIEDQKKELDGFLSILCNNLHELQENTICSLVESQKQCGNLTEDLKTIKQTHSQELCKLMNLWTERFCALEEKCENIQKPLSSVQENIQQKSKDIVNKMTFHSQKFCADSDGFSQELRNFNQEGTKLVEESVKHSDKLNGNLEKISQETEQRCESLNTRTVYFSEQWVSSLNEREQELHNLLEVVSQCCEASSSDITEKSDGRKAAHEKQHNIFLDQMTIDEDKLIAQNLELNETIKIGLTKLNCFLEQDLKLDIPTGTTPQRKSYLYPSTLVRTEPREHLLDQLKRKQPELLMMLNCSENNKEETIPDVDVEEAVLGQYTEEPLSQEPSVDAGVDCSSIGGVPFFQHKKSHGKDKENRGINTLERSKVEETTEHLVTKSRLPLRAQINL

Question: What does the source list for `CCOC(=O)C1=C(C)Nc2nc3ccccc3n2C1c1c(O)ccc2ccccc12` (stereo not drawn)?
Answer: IC50 (NCI-H1299): 40 µM; IC50 (PC-3): 37 µM

Question: `CCOC(=O)C1=C(C)NC(=O)NC1c1cccc(O)c1` (stereo not drawn) was tested. Which IC50 [1] did it give?
Answer: 14 µM
